pEC50, pIC50: −log10 of the molar value.
Assays:
[1] = system: normal human lymphocytes; assay: concanavalin A induced lymphocyte proliferation, [3H]-TdR incorporation; type: cell-based; settings: Homo sapiens, Lymphocyte, 72 hours, read-out: ED50 (the source's name)
How it was run: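 Ficoll-isolated human peripheral blood mononuclear cells, stimulated with concanavalin A, exposed to six 4-fold compound dilutions (top well concentration 266.7 μM) for 72 h at 37 °C. Proliferation read as [3H]-TdR incorporation over 6 h by scintillation counting; ED50 taken from dose-response curves relative to control cpm.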

[2] = system: T-lymphoblastic leukemia cell line CEM; assay: MTT cytotoxicity assay, CEM; type: cell-based, human; settings: Homo sapiens, 72 hours (TCS50 in the method)
How it was run: (§1)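 Cells pre-incubated 24 h, then exposed to six 4-fold dilutions (top well concentration typically 266.7 μM) in duplicate for 72 h at 37 °C, 5% CO2. MTT read-out, SDS-solubilized formazan measured at 540 nm. TCS50, the concentration lethal to 50% of tumour cells, derived from dose-response curves.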

[3] = system: B16 melanoma; assay: MTT cytotoxicity assay, B16; type: cell-based, mouse; settings: Mus musculus, B16, 72 hours (TCS50 in the method)
How it was run: as §1

CCCCCCNc1nc(NC(CO)c2ccccc2)c2ncn(C(C)C)c2n1 (stereo not drawn) [P23, 2-(hexylamino)-6-(1-phenyl-2-hydroxyethylamino)-9-isopropylpurine] showed a pEC50 [1] of 4.25, a pIC50 [2] of 4.47 and a pIC50 [3] of 4.43.

Source: US20030187261A1, “Purine derivatives, process for their preparation and use thereof” (priority 2000, published 2003)
